Ends that are not written are not given here.
Key:
H-2K^b = H-2K^b (Mus musculus, UniProt P01901); experiment: biochemical; format: binding
H-2D^b = H-2D^b (Mus musculus, UniProt P01899); conditions: read-out: average IC50 of the radiolabeled standard peptide; cited from earlier work
H-2D^b, sequence (P01899 25-362): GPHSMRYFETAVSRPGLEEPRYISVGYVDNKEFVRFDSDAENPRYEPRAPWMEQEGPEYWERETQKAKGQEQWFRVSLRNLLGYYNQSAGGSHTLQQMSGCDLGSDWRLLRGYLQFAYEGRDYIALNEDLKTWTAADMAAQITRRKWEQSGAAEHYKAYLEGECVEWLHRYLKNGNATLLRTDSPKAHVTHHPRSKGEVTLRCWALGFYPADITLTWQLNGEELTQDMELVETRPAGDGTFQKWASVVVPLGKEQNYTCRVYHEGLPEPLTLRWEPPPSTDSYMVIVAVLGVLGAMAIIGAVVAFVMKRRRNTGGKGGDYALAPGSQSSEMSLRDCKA
H-2D^b, sequence (P61769 21-119, further chain): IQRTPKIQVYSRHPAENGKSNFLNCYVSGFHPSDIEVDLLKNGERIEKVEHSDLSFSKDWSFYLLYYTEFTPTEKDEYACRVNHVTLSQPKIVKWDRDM

H-2K^b, sequence (P01901 22-369): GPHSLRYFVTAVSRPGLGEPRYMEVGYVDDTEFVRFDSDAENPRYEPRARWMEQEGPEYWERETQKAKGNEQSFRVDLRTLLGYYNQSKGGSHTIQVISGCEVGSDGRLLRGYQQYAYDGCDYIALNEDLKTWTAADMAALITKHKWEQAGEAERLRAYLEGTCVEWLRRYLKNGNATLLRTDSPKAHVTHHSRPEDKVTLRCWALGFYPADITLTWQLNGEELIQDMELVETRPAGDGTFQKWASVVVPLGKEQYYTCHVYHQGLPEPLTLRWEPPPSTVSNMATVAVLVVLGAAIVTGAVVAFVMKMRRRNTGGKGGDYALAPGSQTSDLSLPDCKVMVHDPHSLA
H-2K^b, sequence (P61769 21-119, further chain): as the sequence (P61769 21-119, further chain) above

Row | Sequence | IC50 (H-2K^b) [nM] | IC50 (H-2D^b) [nM]
1 | ISLKNYGI [ISLKNYGI] | 16 | –
2 | KVEEYCTGL [KVEEYCTGL] | 129 | –
3 | LAVLFINSI [LAVLFINSI] | 28 | –
4 | SGPSNTYPEI | – | 4.4
5 | TSYKFESV [B8R20-27] | 0.19 | –
6 | WQTMYTNV [WQTMYTNV] | 6.6 | –

From publication PMC2212779 (The Journal of Experimental Medicine, 2005)
